Legend:
[1] = tested on: K4/K19 tetracycline-responsive ribozyme-switch; assay: K4/K19 tetracycline-responsive ribozyme-switch controlling GFP expression in stably transfected cells (FACS); format: cell-based, CHO; settings: 50 μM tetracycline concentration; GFP readout
Experimental: The method according to the current invention is exemplified first in the following using the K4/K19 tetracycline-responsive ribozyme-switch generated by Beilstein et al. (ACS Synth. Biol., […] (2015) 526-534). This is presented solely as an illustration of the method according to the invention and shall not be construed as limitation thereof. The true scope is set forth in the appended claims.
Whilst the output measurement was different (Luciferase vs GFP) a 1.9× fold-increase at 50 μM tetracycline concentration was achieved (FIG. 4 and FIG. 5).
For testing and screening RNA-switches that control the mRNA degradation of a GFP reporter were cloned into the front plasmid, whereas the red-shifted iRFP gene was cloned into the back plasmid and was used for fluorescence normalization purposes. Expressed genes were placed under the control of a strong promoter (SV40). The RNA-switches constructs were cloned downstream of the GFP gene and before the bovine growth hormone polyadenylation (bGH-polyA) signal sequence. For each construct, both the complementary and anti-complementary strands were ordered as 5′-phosphorylated ssDNA oligonucleotides at Microsynth AG (Belgach, Switzerland) and were annealed by snap cooling at 0.166 μM concentration. […]

[2] = tested on: Env140-based LNA-regulatable ribozyme (cell lines S69 and S70); assay: LNA-activation assay and flow cytometry of GFP expression; design: species or system CHO; settings: stable cell lines with inducible/switchable construct and inactive construct; FACS
Experimental: S69 and S70, were seeded at 50,000 cells/well into a flat-bottom round wells 96-well microplate, in 200 μL media, and incubated in standard static cell culture condition with or without 12.5 μM LNA oligonucleotide added from three to seven days, after which a 70 μL aliquot was removed and analyzed by flow cytometry. Flow cytometry was performed on a 4-6 color BD FACSCanto™ or FACS Celesta™ System using the FITC channel for the evaluation of GFP expression, and APC channel for iRFP expression. The population of cells was gated to avoid cell doublets detected by the forward and side scattering.

| Compound | fold-increase (GFP output) [1] | shift of GFP fluorescence upon application of the LNA [2] |
| --- | --- | --- |
| CN(C)[C@@H]1C(O)=C(C(N)=O)C(=O)[C@@]2(O)C(O)=C3C(=O)c4c(O)cccc4[C@@](C)(O)[C@H]3C[C@@H]12 [tetracycline] | 1.9 fold |  |
| ATTGTGCCTGAGGGTAGT (all phosphorothioate, sugars by position and methylation of C not given here; some nucleotides are LNA) |  | fluorescence is shifted |

Reference: patent US20240425855A1, “NUCLEIC ACID-[…] RNAS FOR TRIGGER-[…]” (Hoffmann-La Roche Inc., priority 2021, published 2024)
